Reference: patent US8791132B2, “Compounds and methods for treatment of hypertension” (Medivation Technologies, Inc., priority 2011, dated 2014)
“And” between values parts separate entries of the source, which are not always exact repeats. Identical values can stand only once. Like-named read-outs stand apart in the source and are kept apart here. Each block holds one molecule with its values, some of them ahead of it.

Assays:
[1] = target: T1, human recombinant adrenergic α2B receptor (Homo sapiens, UniProt P18089); assay: Radioligand binding, adrenergic α2B ([3H]Rauwolscine); conditions: for Ki: read-out: Ki α2B
T1 construct: expressed in transfected cells; host or cells: CHO-K1
T1 sequence (P18089 1-450): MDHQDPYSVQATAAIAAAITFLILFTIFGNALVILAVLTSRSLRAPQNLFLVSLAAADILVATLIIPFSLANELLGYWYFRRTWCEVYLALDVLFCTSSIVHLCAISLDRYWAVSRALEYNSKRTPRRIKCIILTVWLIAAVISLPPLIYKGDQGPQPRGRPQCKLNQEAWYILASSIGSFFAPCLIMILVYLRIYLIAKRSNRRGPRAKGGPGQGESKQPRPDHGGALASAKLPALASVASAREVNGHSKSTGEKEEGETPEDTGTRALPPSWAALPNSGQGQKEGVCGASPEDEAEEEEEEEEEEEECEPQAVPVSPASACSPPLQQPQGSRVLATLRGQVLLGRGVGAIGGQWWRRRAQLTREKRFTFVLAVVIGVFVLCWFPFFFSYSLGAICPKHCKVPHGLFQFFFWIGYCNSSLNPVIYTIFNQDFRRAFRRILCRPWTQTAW
Outline: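 Assay used CHO-K1-expressed human α2B receptor in Tris-HCl pH 7.4 buffer with MgCl2, EDTA and BSA; 60 min incubation at 25 °C.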

[2] = target: T2, rat adrenergic α1B receptor (Rattus norvegicus, UniProt P15823); assay: Radioligand binding, adrenergic α1B ([3H]Prazosin)
T2 construct: rat adrenergic α1B receptor obtained from Wistar Rat liver; from tissue; host or cells: Wistar rat liver
T2 sequence (P15823 1-515): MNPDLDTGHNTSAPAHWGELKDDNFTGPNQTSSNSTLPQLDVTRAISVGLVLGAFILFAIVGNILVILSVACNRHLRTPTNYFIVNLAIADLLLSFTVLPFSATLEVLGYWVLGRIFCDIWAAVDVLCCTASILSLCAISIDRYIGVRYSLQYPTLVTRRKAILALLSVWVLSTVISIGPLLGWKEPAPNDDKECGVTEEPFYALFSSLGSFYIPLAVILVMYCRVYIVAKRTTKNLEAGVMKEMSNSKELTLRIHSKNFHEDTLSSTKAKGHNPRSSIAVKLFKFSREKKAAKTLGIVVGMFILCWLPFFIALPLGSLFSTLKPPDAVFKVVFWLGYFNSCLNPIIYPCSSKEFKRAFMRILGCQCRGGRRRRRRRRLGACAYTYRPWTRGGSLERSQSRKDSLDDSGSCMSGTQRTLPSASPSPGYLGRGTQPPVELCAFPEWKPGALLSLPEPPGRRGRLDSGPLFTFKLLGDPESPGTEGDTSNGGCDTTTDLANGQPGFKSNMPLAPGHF
Outline: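 Incubation ran 60 min at 25 °C in Tris-HCl buffer (50 mM, pH 7.4, 0.5 mM EDTA) with Wistar rat liver α1B receptor. 10 μM phentolamine set non-specific binding.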

[3] = target: T3, human recombinant adrenergic α2A receptor (Homo sapiens, UniProt P08913); assay: Radioligand binding, adrenergic α2A ([3H]MK-912); conditions: for Percentage inhibition of ligand binding, Adrenergic α2A / Percentage inhibition of ligand binding, Adrenergic α2A (0.1 μM): 0.1 µM
T3 construct: expressed in transfected cells; host or cells: insect Sf9 cells
T3 sequence (P08913 1-465): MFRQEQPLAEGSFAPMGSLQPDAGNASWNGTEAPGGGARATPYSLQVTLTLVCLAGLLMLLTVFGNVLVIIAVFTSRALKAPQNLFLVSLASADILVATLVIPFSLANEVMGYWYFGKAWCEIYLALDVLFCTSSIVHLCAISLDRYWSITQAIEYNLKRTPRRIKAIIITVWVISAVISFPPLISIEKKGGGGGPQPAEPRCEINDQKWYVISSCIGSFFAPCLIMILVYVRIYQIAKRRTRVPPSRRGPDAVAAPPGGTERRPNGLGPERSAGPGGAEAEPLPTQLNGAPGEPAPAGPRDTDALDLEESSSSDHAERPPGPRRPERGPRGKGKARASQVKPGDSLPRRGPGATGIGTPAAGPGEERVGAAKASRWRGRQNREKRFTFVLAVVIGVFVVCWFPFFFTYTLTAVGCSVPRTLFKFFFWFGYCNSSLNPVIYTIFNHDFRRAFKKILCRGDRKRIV
Outline: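 In 50 mM Tris-HCl (pH 7.4) containing 12.5 mM MgCl2 and 2 mM EDTA, Sf9-expressed receptor was exposed to test compound plus 1 nM [3H]MK-912 at 25 °C for 60 min. Specific binding, corrected using 10 μM WB-4101, was quantified by filtration and counting and expressed as percent inhibition.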

[4] = compound at 0.03 μM, [3H]Rauwolscine, repeat assays, each datapoint shown, 0.03 µM
[5] = compound at 0.1 μM, [3H]Prazosin, repeat assays, each datapoint shown, 0.1 µM
[6] = compound at 0.1 μM, [3H]MK-912, repeat assays, each datapoint shown
[7] = compound at 0.03 μM, [3H]Rauwolscine, repeat datapoints each shown, 0.03 µM
[8] = compound at 0.1 μM, [3H]Prazosin, repeat datapoints each shown, 0.1 µM
[9] = compound at 0.1 μM, [3H]MK-912, repeat datapoints each shown
[10] = read-out: Percentage inhibition of ligand binding, Adrenergic α2B (0.03 μM), compound at 0.03 μM, [3H]Rauwolscine, repeat datapoints each shown
[11] = read-out: Percentage inhibition of ligand binding, Adrenergic α1B (0.1 μM), compound at 0.1 μM, [3H]Prazosin, repeat datapoints each shown
[12] = read-out: Percentage inhibition of ligand binding, Adrenergic α2A (0.1 μM), compound at 0.1 μM, [3H]MK-912, repeat datapoints each shown

Percentage inhibition of ligand binding, Adrenergic α2B [1, 4]: 86%
Percentage inhibition of ligand binding, Adrenergic α1B [2, 5]: 14%
Percentage inhibition of ligand binding, Adrenergic α2A [3, 6]: 17%
SMILES: CN1CCc2c(c3cccc(Br)c3n2CC(O)c2ccncc2)C1 (single isomer, unassigned) [48b]

Percentage inhibition of ligand binding, Adrenergic α2B (0.03 μM) [1, 7]: 37%
Percentage inhibition of ligand binding, Adrenergic α1B (0.1 μM) [2, 8]: 9%
Percentage inhibition of ligand binding, Adrenergic α2A (0.1 μM) [3, 9]: 8%
SMILES: CNC(Cn1c2c(c3cc(C)ccc31)CN(C)CC2)c1ccncc1 (single isomer, unassigned) [151b, 2-(1,2,3,4-tetrahydro-2,8-dimethylpyrido[4,3-b]indol-5-yl)-N-methyl-1-(pyridin-4-yl)ethanamine]

SMILES: Cc1ccc2c(c1)c1c(n2CC(OC(=O)C(C)(C)C)c2ccncc2)CCN(C)C1 (single isomer, unassigned) [130b]
Ki [1]: 2.52 nM
Percentage inhibition of ligand binding, Adrenergic α1B (0.03 μM) ([2]; compound at 0.03 μM, [3H]Prazosin, repeat datapoints each shown, 0.03 µM): 2%
Percentage inhibition of ligand binding, Adrenergic α1B (0.1 μM) [2, 8]: 8% and 11%
Ki [3]: 72.6 nM
Percentage inhibition of ligand binding, Adrenergic α2A (0.03 μM) ([3]; compound at 0.03 μM, [3H]MK-912, repeat datapoints each shown, 0.03 µM): 13%
Percentage inhibition of ligand binding, Adrenergic α2A (0.1 μM) [3, 9]: 31%

Percentage inhibition of ligand binding, Adrenergic α2B ([1]; 0.03 μM compound, 0.03 µM): 14%
Percentage inhibition of ligand binding, Adrenergic α1B ([2]; 0.1 μM compound, 0.1 µM): 6%
Percentage inhibition of ligand binding, Adrenergic α2A ([3]; 0.1 μM compound): 15%
SMILES: CC(=O)NC(Cn1c2c(c3cc(C)ccc31)CN(C)CC2)c1ccncc1 (single isomer, unassigned) [II-1a, N-(2-(1,2,3,4-tetrahydro-2,8-dimethylpyrido[4,3-b]indol-5-yl)-1-(pyridin-4-yl)ethyl)acetamide]

inhibition at 0.03 µM [1, 10]: 54%
inhibition at 0.1 µM [2, 11]: 45%
inhibition at 0.1 µM [3, 12]: 22%
SMILES: Cc1ccc2c(c1)c1c(n2CC(C)(O)c2cccnc2)CNCC1 (stereo not shown) [128b]

Percentage inhibition of ligand binding, Adrenergic α2B (0.03 μM) [1, 7]: 79%
Percentage inhibition of ligand binding, Adrenergic α1B (0.1 μM) [2, 8]: 54%
Percentage inhibition of ligand binding, Adrenergic α2A (0.1 μM) [3, 9]: 8%
SMILES: Cc1cnc2c(c1)c1c(n2CC(O)c2ccncc2)CCN2CCCC12 (single isomer, unassigned) [IV-209d, 2-(9-Methyl-1,2,3,4,5,10c-hexahydro-3a,6,7-triaza-cyclopenta[c]fluoren-6-yl)-1-pyridin-4-yl-ethanol]

inhibition at 0.03 µM [1, 10]: 40%
Percentage inhibition of ligand binding, Adrenergic α1B (0.1 μM) [2, 8]: 45%
Percentage inhibition of ligand binding, Adrenergic α2A (0.1 μM) [3, 9]: 12%
SMILES: Cc1cnc2c(c1)c1c(n2CC(O)c2ccc(C#N)nc2)CCN(C)C1 (single isomer, unassigned) [II-114a, 5-[2-(3,6-dimethyl-5,6,7,8-tetrahydro-1,6,9-triaza-fluoren-9-yl)-1-hydroxy-ethyl]-pyridine-2-carbonitrile]

Percentage inhibition of ligand binding, Adrenergic α2B [1, 4]: 0%
Percentage inhibition of ligand binding, Adrenergic α1B [2, 5]: 2%
Percentage inhibition of ligand binding, Adrenergic α2A [3, 6]: 6%
SMILES: OC(Cn1c2c(c3cccnc31)CN1CCCC1C2)c1ccncc1 (single isomer, unassigned) [37c]

Percentage inhibition of ligand binding, Adrenergic α2B (0.03 μM) [1, 7]: 101% and 103%
Ki [1]: 0.33 nM
Percentage inhibition of ligand binding, Adrenergic α1B (0.1 μM) [2, 8]: 70% and 75%
inhibition at 0.03 µM ([2]; read-out: Percentage inhibition of ligand binding, Adrenergic α1B (0.03 μM), compound at 0.03 μM, [3H]Prazosin, repeat datapoints each shown): 43%
Percentage inhibition of ligand binding, Adrenergic α2A (0.1 μM) [3, 9]: 37%
SMILES: CC(O)(Cn1c2c(c3cc(Cl)cnc31)C1CCCN1CC2)c1cccnc1 (single isomer, unassigned) [IV-210a]

Percentage inhibition of ligand binding, Adrenergic α2B [1, 4]: 29% and 38%
Percentage inhibition of ligand binding, Adrenergic α2B ([1]; compound at 0.1 μM, [3H]Rauwolscine, repeat assays, each datapoint shown, 0.1 µM): 57%
Ki [1]: 35 nM
inhibition at 0.1 µM ([2]; compound at 0.1 μM, [3H]Prazosin, repeat assays, each datapoint shown, read-out: Percentage inhibition of ligand binding, Adrenergic α1B): 18%
Percentage inhibition of ligand binding, Adrenergic α2A [3, 6]: 0%
SMILES: Cc1ccc2c(c1)c1c(n2CC(C)(O)c2cccnc2)CCN(C)C1 (single isomer, unassigned) [5a, 1-(1,2,3,4-tetrahydro-2,8-dimethylpyrido[4,3-b]indol-5-yl)-2-(pyridin-3-yl)propan-2-ol]

Percentage inhibition of ligand binding, Adrenergic α2B [1, 4]: 29%
Percentage inhibition of ligand binding, Adrenergic α1B ([2]; compound at 0.1 μM, [3H]Prazosin, repeat assays, each datapoint shown): 8%
Percentage inhibition of ligand binding, Adrenergic α2A [3, 6]: 15%
SMILES: Cc1ccc2c(c1)c1c(n2CC(C)(O)c2cccnc2)CCNC1 (single isomer, unassigned) [24b]

inhibition at 0.03 µM [1, 10]: 106%
inhibition at 0.1 µM [2, 11]: 100%
inhibition at 0.1 µM [3, 12]: 98%
SMILES: C/C(=C\n1c2c(c3cc(C)ccc31)C1CCCN1CC2)c1ccc(F)cc1 (stereo not shown) [194a, 7-(2-(4-fluorophenyl)prop-1-enyl)-10-methyl-2,3,5,6,7,11c-hexahydro-1H-indolizino[7,8-b]indole]

SMILES: Cc1cnc2c(c1)c1c(n2CCc2ccc(C)nc2)CCN2CCCCC12 (single isomer, unassigned) [IV-8a]
inhibition at 0.03 µM [1, 10]: 4%
Percentage inhibition of ligand binding, Adrenergic α1B (0.1 μM) [2, 8]: 49%
Percentage inhibition of ligand binding, Adrenergic α2A (0.1 μM) [3, 9]: 7%

inhibition at 0.03 µM ([1]; 0.03 μM compound, read-out: Percentage inhibition of ligand binding, Adrenergic α2B): 25%
inhibition at 0.1 µM ([2]; 0.1 μM compound, read-out: Percentage inhibition of ligand binding, Adrenergic α1B): 16%
inhibition at 0.1 µM ([3]; 0.1 μM compound, read-out: Percentage inhibition of ligand binding, Adrenergic α2A): -2%
SMILES: Cc1ccc2c(c1)c1c(n2CC(O)C2CCCCC2)CCN(C)C1 (stereo not shown) [II-91]

Percentage inhibition of ligand binding, Adrenergic α2B (0.03 μM) [1, 7]: 38%
Percentage inhibition of ligand binding, Adrenergic α1B (0.1 μM) [2, 8]: 7%
Percentage inhibition of ligand binding, Adrenergic α2A (0.1 μM) [3, 9]: 3%
SMILES: CC1Cc2c(c3cc(Cl)ccc3n2CC(C)(O)c2cccnc2)CN1C (single isomer, unassigned) [II-147c, 1-(8-chloro-2,3-dimethyl-3,4-dihydro-1H-pyrido[4,3-b]indol-5(2H)-yl)-2-(pyridin-3-yl)propan-2-ol]

inhibition at 0.03 µM [1, 10]: 43%
Percentage inhibition of ligand binding, Adrenergic α1B (0.1 μM) [2, 8]: 35%
Percentage inhibition of ligand binding, Adrenergic α2A (0.1 μM) [3, 9]: −12%
SMILES: Cc1cnc2c(c1)c1c(n2CC(N)c2ccc(C#N)cc2)CCNC1 (single isomer, unassigned) [160a]

Percentage inhibition of ligand binding, Adrenergic α2B (0.03 μM) [1, 7]: 27%
Percentage inhibition of ligand binding, Adrenergic α1B (0.1 μM) [2, 8]: 13%
Percentage inhibition of ligand binding, Adrenergic α2A (0.1 μM) [3, 9]: −2%
SMILES: Cc1cnc2c(c1)c1c(n2CC(C)(O)c2ccc(C(F)(F)F)nc2)CCN(C)C1 (single isomer, unassigned) [II-108a]

Percentage inhibition of ligand binding, Adrenergic α2B [1, 4]: 27%
Percentage inhibition of ligand binding, Adrenergic α1B [2, 5]: 46%
Percentage inhibition of ligand binding, Adrenergic α2A [3, 6]: 13%
SMILES: Cc1ccc2c(c1)c1c(n2CC(O)c2cccnc2)CN(C)CC1 (single isomer, unassigned) [43b, 2-(2,6-dimethyl-1,2,3,4-tetrahydro-β-carbolin-9-yl)-1-pyridin-3-yl-ethanol]
